{
  "source": "patent US20210087279A1",
  "about": "“REGULATABLE CHIMERIC ANTIGEN RECEPTOR” (Novartis AG, priority 2014, published 2021)",
  "assay_type_in_all_cases": "cell-based",
  "key": {"[1]": {"tested_on": "luciferase-expressing Nalm6 (human pre-B ALL) cell line", "experiment": "Killing assay with RCAR-expressing primary T cells", "details": "effector:target 1:1; 20 hours", "protocol": "The ability for RCAR T cells (RCAR T cell generation described above) to target and kill tumor cells was assessed in vitro. A luciferase-based assay was used, with tumor cell lines expressing luciferase reporters. Target cells (tumor cells) were plated at 25,000 cells/well. RCAR T cells, as well as standard CAR-expressing T cells and T cells expressing no CARs were added at the effector:target ratio 1:1 in duplicates. Additionally, RAD001 was added in seven 5-fold dilution steps, starting at 50 nM. One duplicate received pure medium, no RAD001. The cells were cultured for 20 hours, after which the luminescence of each well was detected to determine the percentage of target cells killed (BrightGlo, Promega protocol). Specific killing (%)=[…]. The luciferase-expressing Nalm6 (human pre-B ALL) cell line was used as the target cell."}, "[2]": {"tested_on": "NFAT activity in Jurkat cells with NFAT-LUC reporter (JNL)", "experiment": "Activation of RCAR half switches (intracellular FKBP/FRB) by RAD001", "details": "both half switches (CD28 or 4-1BB); 0-10 nM tested", "protocol": "In this example, the activation of a RCAR half switch was evaluated in the presence of the dimerization molecule RAD001. Two RCAR constructs were tested where the dimerization switch is an intracellular FKBP/FRB dimerization switch, and the switch domains are located in both orientations with respect to the antigen binding member and the intracellular member. For example, the antigen binding member comprises a scFV domain, a transmembrane domain, an intracellular switch domain, and an intracellular costimulatory signaling domain; and the intracellular signaling member comprises an […] switch domain, a transmembrane domain, and an intracellular primary signaling domain, e.g., CD3zeta (FIG. 36A).\nJurkat cells with NFAT-LUC reporter (JNL) were grown to the density of 0.5×10^6/ml in Jurkat cell growth media with puromycin at 0.5 μg/ml. For each transfection 2.5×10^6 cells were spin down at 100 g for 10 minutes. Two μg of DNA per construct were used per transfection. […]\nAfter one hour, RAD001 compound was delivered at 50 nM when testing RCARs with different costimulatory signaling domains (FIGS. 36A-B), or various concentrations: 0 nM, 0.01 nM, 0.03 nM, 0.1 nM, 0.3 nM, 1 nM, 3 nM, and 10 nM (FIGS. 37A-B). […] The samples were incubated for 5 min at 37° C. and then luminescence is measured using Envision plate reader."}, "[3]": {"tested_on": "reporter under NFAT control in JNL cells", "experiment": "Dimerization molecule dose response, single vector construct 143775 in JNL cells, CD19 target", "details": "nM to sub-nM doses", "text": "The constructs and viral particles were made and tested essentially as described in Example 11. Viral particles were introduced into JNL cells and evaluated for activity essentially as described in Example 1 except that the target was CD19 (as opposed to EGFRviii).\nConstruct 143775 was introduced into cells and the affect of dimerization molecule concentration on activation evaluated essentially as described in Example 14."}, "[4]": {"tested_on": "NFAT activity in Jurkat cells with NFAT-LUC reporter (JNL)", "experiment": "Activation of RCAR with extracellular FKBP/FRB switch by RAD001", "details": "for RAD001 dose at which NFAT activity peaked: 0-50 nM tested", "protocol": "In this example, the activation of RCAR with an extracellular switch was evaluated in the presence of the dimerization molecule RAD001. Four RCARs were tested: two half switch constructs, e.g., with the dimerization switch in both orientations (FIG. 34A), and two full switch constructs, e.g., with the dimerization switch in both orientations (FIG. 34B), where the dimerization switch is an extracellular FKBP/FRB dimerization, as depicted in FIGS. 34A and 34B. In the half-switch constructs, the antigen binding member comprises a scFV domain, an extracellular switch domain, a transmembrane domain, an intracellular costimulatory signaling domain 4-1BB, and the intracellular signaling member comprises an extracellular switch domain, a transmembrane domain, and an intracellular primary signaling domain, CD3zeta (FIG. 34A). In the full-switch constructs, the antigen binding member comprises a scFv domain, an extracellular switch domain, and a transmembrane domain, and the intracellular signaling member comprises an extracellular switch domain, a transmembrane domain, an intracellular costimulatory signaling domain, 4-1BB, and an intracellular primary signaling domain, CD3zeta (FIG. 34B).\nThe RCAR constructs were expressed in a Jurkat reporter cell line. Jurkat cells with NFAT-LUC reporter (JNL) were grown to the density of 0.5×10^6/ml in Jurkat cell growth media with puromycin at 0.5 μg/ml. For each transfection 2.5×10^6 cells were spin down at 100 g for 10 minutes. Two μg of DNA per RCAR construct were used per transfection. Amaxa Nucleofector solution V and supplement I was mixed and 100 μl was added into the tube with DNA construct. The mixture was then added to the cells and transferred to the electroporation cuvette. Electroporation was done under setting X-001 using Amaxa Nucleofector II Device. […]\nAfter one hour, RAD001 compound was applied at various concentrations: 0 nM, 0.01 nM, 0.03 nM, 0.1 nM, 0.3 nM, 1 nM, 5 nM, and 50 nM. […] The samples were incubated for 5 min at 37° C. and then luminescence was measured using Envision plate reader."}},
  "data": [
    {"smiles": "CO[C@H]1C[C@@H]2CC[C@@H](C)[C@@](O)(O2)C(=O)C(=O)N2CCCC[C@H]2C(=O)O[C@H]([C@H](C)C[C@@H]2CC[C@@H](OCCO)[C@H](OC)C2)CC(=O)[C@H](C)/C=C(\\C)[C@@H](O)[C@@H](OC)C(=O)[C@H](C)C[C@H](C)/C=C/C=C/C=C/1C", "note": "[RAD001, (1R,9S,12S,15R,16E,18R,19R,21R,23S,24E,26E,28E,30S,32S,35R)-1,18-dihydroxy-12-{(1R)-2-[(1S,3R,4R)-4-(2-hydroxyethoxy)-3-methoxycyclohexyl]-1-methylethyl}-19,30-dimethoxy-15,17,21,23,29,35-hexamethyl-11,36-dioxa-4-aza-tricyclo[30.3.1.04,9]hexatriaconta-16,24,26,28-tetraene-2,3,10,14,20-pentaone]", "values": [
      {"measurement": "RAD001 concentration at maximal killing by RCAR-expressing T cells", "setting": "[1]", "value": "around 1 nM"},
      {"measurement": "RAD001 concentration at which NFAT activity peaked", "setting": "[2]", "value": 1, "unit": "nM"},
      {"measurement": "activation", "setting": "[3]", "value": "effective at a broad range of concentrations"},
      {"measurement": "RAD001 dose at which NFAT activity peaked", "setting": "[4]; extracellular RCAR full switches", "value": 1, "unit": "nM"},
      {"measurement": "inhibition of NFAT activity at higher dosages", "setting": "[4]; extracellular half switch 1, 5 nM and 50 nM", "value": "no inhibition of activity"},
      {"measurement": "RAD001 dose at which NFAT activity peaked", "setting": "[4]; extracellular half switch 2", "value": 1, "unit": "nM"}
    ]}
  ]
}
